The values below come from patent US8735439B2, “Chlorin e6-folic acid conjugate, preparation method thereof, and a pharmaceutical composition for the treatment of cancer comprising the same” (Diatech Korea Co., Ltd., priority 2009, dated 2014).

The conditions of data set [1]: in benzol, standard to estimate γ; cited from earlier work.
Data set [2] has as its system transporter of restored vectors (TRV). Conditions: cited from earlier work; for Km: read-out: KM (affinity of the carrier TRV).
For data set [3], the system named is Hela cells. The experiment in a line: Phototoxicity, 24 h incubation, 1.5-15 joule/cm^2. The format is cell-based. The conditions noted are these: 670-690 nm. The method, then: In other experiment, the cells were incubated with photosensitizers at 37° C. for 24 hours, and irradiated by exposed on ice by a laser medical device “LD 680-2000” (wavelength of 670-690 nm) in a dose of 1.5-15 joule/cm^2.

The subject of data set [4] is Hela cells. Nature of the data set: Accumulation in Hela cells.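 On concentration in Hela cells: measured as suspension fluorescence intensity at excitation 405 nm and emission 665 nm.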 The format is cell-based. The conditions noted are these: for concentration in Hela cells: 2×10^−5 M/l, 37° C. The method, then:
The cellular accumulation and the targeted delivery of the photoactive compounds were investigated using Hela cells, which is one of the numerous tumor cell types that overexpress folate receptors.
Cells were cultivated for 3 days in medium 199, and transferred to Hank's solution/medium 199 (9/1). After 3 hours, the cell were collected by trypsin treatment from the substrate and placed in Hank's solution (10^5 ? /ml). To cell suspensions, chlorin e6 conjugates were added at a concentration of 2×10^−5 M/l, and incubated at 37° C. After 1, 5, 10, 15, and 24 hours, the samples were centrifuged, the pellet was washed with the cooled Hank's solution, and transferred to Hank's solution at a concentration being equal to that in the initial suspension.

The next data set deals with HeLa cell culture. The experiment in a line: Phototoxicity (photodynamic activity), 3.5 h incubation, 3.3 joule/cm^2. The conditions noted are these: 3.5 hours incubation, photoexposure 3.3 joule/cm^2. The data set is classed as cell-based. Also on record: number of HELA cells relative to the control: unit not given here. The method, then:
To examine the photodynamic effects of a photosensitizer on a HeLa cell culture, the photosensitizer solution was added to the nutrient media at a final concentration of 0.1, 0.5, 1.0, 5.0 or 10 mcg/ml on day 3 after transplanting the cell culture into flasks. The flasks were wrapped with a light protecting cover, and incubated at 37° C. for 3.5 hours. Then, the cells were washed with Hank's solution, and exposed on ice by a laser medical device “LD 680-2000” (wavelength: 670-690 nm) at a dose of 3.3 joule/cm^2. After 20-24 hours, the available cell monolayer was dispersed using a 0.02%-Versene solution, and the number of tumor cells was calculated in Goriaev's chamber. For each point, 3 flasks were used.

In another data set the test system is HeLa tumor cells. The experiment in a line: Cytotoxicity (antiproliferative assay) in the absence of light exposure. The format is cell-based. The conditions noted are these: for number of HeLa cells: no light, 24 hours. The method, then: Cytotoxicity was analyzed, considering the intensity of proliferative processes in cells, photosensitizer concentration, and dose of optical power. For each point, 3 flasks with cell monolayer were used.
The monolayer culture of HeLa tumor cells was chosen and used as the cell.
The culture of HeLa tumor cells was grown in nutrient medium 199 or in nutrient medium containing hemohydrolyzate supplemented with 10% fetal bovine serum and […] of kanamycin. […]
Flasks with light-protective cover (dark cytotoxicity) were incubated at 37.5° C. for 1 hour. The cells were washed with Hank's solution 4 times. 2.0 ml of fresh nutrient medium were added, and the cells were irradiated at the temperature of melting ice for 5, 10, 15 or 20 mins by the light flux of a “METALAZ” laser medical device (wavelength: 627.8 nm, 578.2 or 510.6 nm) or “LD 680-2000” (wavelength: 670-690 nm), depending on the wavelength of maximum spectral absorption of the studied photosensitizer, at a dose of 40 J/cm^2. After 20-24 hours, the number of tumor cell was counted in Goriaev's chamber.

Data set [5] has as its system Hela cells. The experiment in a line: Competition assay with exogenous folic acid, uptake in Hela cells. The conditions noted are these: 4 μM/l folic acid, 24 hours. The data set is classed as cell-based. The text has this: Then, the sample was centrifuged, the supernatant was taken, and the pellet was rewashed with cooled Hank's solution. The obtained pellet was again transferred into Hank's solution.

With `CCC1=C(CC)c2cc3[n-]c(cc4nc(cc5[n-]c(cc1n2)c(CC)c5CC)C(CC)=C4CC)c(CC)c3CC.[Pd+2]` [Pd(II)-octa ethyl porphyrin], the “γ of the standard” value in data set [1] was “one”.

Consider `Nc1nc(O)c2nc(CNc3ccc(C(=O)N[C@@H](CCC(=O)O)C(=O)O)cc3)cnc2n1` [folic acid, N-[4(2-Amino-4-hydroxypteridin-6-ylmethylamino)benzoyl]-L(+)-glutamic acid], for which the “affinity of TRV-mediated transport” value in data set [2] is listed as “about 200 μM”. Further, in data set [2] (tumor cells), the Km – broadly, the substrate concentration at which the rate is half of its maximum – was 100 to 200 µM.

Turning to `CN(Cc1cnc2nc(N)nc(N)c2n1)c1ccc(C(=O)N[C@@H](CCC(=O)O)C(=O)O)cc1` [methotrexate], in data set [2] (tumor cells), the “maximum rate of TRV transport” value is reported as 1-12 nmol/min per cellular protein (g) and the Km is 4 to 8 µM.

For the molecule `C=Cc1c(C)c2cc3nc(c(CC(=O)O)c4[nH]c(cc5nc(cc1[nH]2)C(C)=C5CC)c(C)c4C(=O)O)C(CCC(=O)O)C3C` (stereo not drawn) [chlorin e6, 13-carboxy-17-[2-carboxyethyl]-15-carboxymethyl-17,18-trans-dihydro-3-vinyl-8-ethyl-2,7,12,18-tetramethylporphyrin], the “phototoxicity in survival test” value with Hela cells [3] was “little phototoxicity”. The “time in which the majority binds with cells” value in the data set on Hela cells [4] (Hela cells) is not above 5 h. The “concentration in Hela cells” value in the data set on Hela cells [4] (incubation 1 hour) is 0.86 relative units/10^4 cl; with Hela cells [4] (incubation 5 hours) it was 1.45 relative units/10^4 cl; with Hela cells [4] (incubation 10 hours), 1.72 relative units/10^4 cl; with Hela cells [4] (incubation 15 hours), 0.81 relative units/10^4 cl; in the data set with Hela cells [4] (incubation 24 hours), 0.40 relative units/10^4 cl. Further, the “number of HELA cells relative to the control” value in the data set on HeLa cell culture (0.1 mcg/ml) is listed as 87.1; with HeLa cell culture (0.5 mcg/ml) it was 83.6; in the data set on HeLa cell culture (1.0 mcg/ml), 64.7; in the data set on HeLa cell culture (5.0 mcg/ml), 19; with HeLa cell culture (10.0 mcg/ml) it was 3.8. The “cytotoxicity in the absence of light exposure” value in the data set with HeLa tumor cells (Hela cells, 24 hr incubation) was “no cytotoxicity”. For the same molecule, the cell survival rate result in the data set with HeLa tumor cells (Hela cells, 24 hr incubation, absence of light exposure) is given as “about 90%”. The “number of HeLa cells” value in the data set with HeLa tumor cells (photosensitizer conc. 1 (μm)) is 101.3 percentage of the control; in the data set with HeLa tumor cells (photosensitizer conc. 2.5 (μm)) it was 99.1 percentage of the control; in the data set on HeLa tumor cells (photosensitizer conc. 5.0 (μm)) it was 98.4 percentage of the control; in the data set on HeLa tumor cells (photosensitizer conc. 10.0 (μm)), 95.5 percentage of the control; with HeLa tumor cells (photosensitizer conc. 20.0 (μm)) it was 90.0 percentage of the control; in the data set on HeLa tumor cells (photosensitizer conc. 30.0 (μm)), 89.7 percentage of the control. The “effect of free folic acid on uptake in Hela cells” value in the data set on Hela cells [5] is “no significant effect”.
